Results published in PMC6847200 (2019).
Values belong to the molecule of their own block, whether it stands above or below them.

What was measured:
Test in all cases: ITC
Details in all cases: 100 mM KCl, 20 mM MgCl2; 50 mM K-HEPES pH 7.5, 30 °C; apparent
[1] = tested on: env1 (RNA, riboswitch) GGGUGUAAUCUCCAAAAUAUGGUUGGGGAGCCUCCACCAGUGAACCGUAAAAUCGCUGUCACCACCC
[2] = tested on: env30 (RNA, riboswitch) GGACGUAGCCUGGGGGAUUGGCCCCAGGGCAUCCACGAGCUGGCCGCAACUAGCUGAGACCGUCC
[3] = tested on: env23 (RNA, riboswitch) GGGUGUAAUUCGGGGGAUUGGCCCCGGAGUAUCCACGACCGGACCAUAAUCCGGUGCAUCCACCC
[4] = tested on: env1 C48A (RNA, riboswitch) GGGUGUAAUCUCCAAAAUAUGGUUGGGGAGCAUCCACCAGUGAACCGUAAAAUCGCUGUCACCACCC
[5] = tested on: env1 C51U (RNA, riboswitch) GGGUGUAAUCUCCAAAAUAUGGUUGGGGAGCCUCUACCAGUGAACCGUAAAAUCGCUGUCACCACCC
[6] = tested on: env1 U75A (RNA, riboswitch) GGGUGUAAUCUCCAAAAUAUGGUUGGGGAGCCUCCACCAGUGAACCGUAAAAUCGCUGACACCACCC
[7] = tested on: env1 G21A,C79U (RNA, riboswitch) GGGUAUAAUCUCCAAAAUAUGGUUGGGGAGCCUCCACCAGUGAACCGUAAAAUCGCUGUCACUACCC
[8] = tested on: env1 C78A (RNA, riboswitch) GGGUGUAAUCUCCAAAAUAUGGUUGGGGAGCCUCCACCAGUGAACCGUAAAAUCGCUGUCAACACCC
[9] = tested on: env6 (RNA, riboswitch) GGACGUAAUCCUCCGAACAGGCGGGGGAGCAUCCACCGCCGGGCCUUAACCCGGUGUAACCGUCC
[10] = tested on: env1 A77U (RNA, riboswitch) GGGUGUAAUCUCCAAAAUAUGGUUGGGGAGCCUCCACCAGUGAACCGUAAAAUCGCUGUCUCCACCC
[11] = tested on: xpt + U75C76 (RNA, riboswitch) GGACAUAUAAUCGCGUGGAUAUGGCACGCAAGUUUCUACCGGGCACCGUAAAUGUCCGUCACUAUGUCC
[12] = tested on: env1 Δ(U75,C76) (RNA, riboswitch) GGGUGUAAUCUCCAAAAUAUGGUUGGGGAGCCUCCACCAGUGAACCGUAAAAUCGCUGACCACCC
[13] = tested on: env1 C47,48U (RNA, riboswitch) GGGUGUAAUCUCCAAAAUAUGGUUGGGGAGUUUCCACCAGUGAACCGUAAAAUCGCUGUCACCACCC
[14] = tested on: xpt U51C + U75C76 (RNA, riboswitch) GGACAUAUAAUCGCGUGGAUAUGGCACGCAAGUUUCCACCGGGCACCGUAAAUGUCCGUCACUAUGUCC

Compound: Nc1nc2c(ncn2[C@@H]2O[C@H](CO)[C@@H](O)[C@H]2O)c(=O)[nH]1
KD,rG [1]: 89 ± 10 nM
KD,rG [2]: 36 000 ± 1000 nM
KD,rG [3]: 51 000 ± 4000 nM

Compound: Nc1nc2c(ncn2[C@H]2C[C@H](O)[C@@H](CO)O2)c(=O)[nH]1
KD,2′-dG [1]: 34 ± 1 nM
KD,2′-dG [2]: 2400 ± 900 nM
KD,dG [4]: 7.1 ± 1.4 nM
KD,dG [5]: 620 ± 180 nM
KD,dG [6]: 1600 ± 300 nM
KD,2′-dG [3]: 290 ± 50 nM
KD,dG [7]: 570 ± 30 nM
KD,dG [8]: 41 000 ± 9000 nM
KD,2′-dG [9]: 88 ± 3 nM
KD,dG [10]: 250 ± 10 nM
KD,app [11]: 8100 ± 600 nM
KD,dG [12]: 240 ± 50 nM
KD,dG [13]: 110 ± 10 nM
KD,app [14]: 1600 ± 100 nM

Compound: O=c1[nH]cnc2nc[nH]c12
KD,app [11]: 21000 ± 2000 nM

Next, values leading:

KD [1]: 2000 ± 100 nM
Compound: Nc1nc2c(ncn2CCC(CO)CO)c(=O)[nH]1

KD [1]: 560 ± 10 nM
Compound: Nc1nc2c(ncn2COCCO)c(=O)[nH]1
